Assay results as given in patent US10927086B2, “Substituted sulfoximine compounds as indoleamine 2,3-dioxygenase (IDO) inhibitors” (Merck Sharp & Dohme Corp., priority 2017, dated 2021).

Tests used:
IDO1 [1] = molecular target: T1, IDO1 (Homo sapiens (Human), UniProt P14902); test: IDO1 Cellular Assay in Hela Cells Stimulated with IFNγ; type: cell-based; conditions: about 48 hours, read-out: IDO1 HELA Cell Assay, IC50
Protocol: Hela cells were cultured in complete Hela culture medium (90% EMEM, 10% heat-inactivated fetal bovine serum) and expanded to about 1×10^9 cells. The cells were then collected and frozen down at 10×10^6 cells/vial in 1 mL frozen medium (90% complete Hela culture medium, 10% DMSO)
Compounds to be tested were serially diluted in ten 3-fold steps in DMSO starting from 10 mM DMSO stocks in Echo low volume plate(s). Compound dilutions or DMSO alone were then dispensed from the dilution plate(s) into Greiner black 384-well assay plate(s) (catalog #781086, 50 nL/well) using an Echo 550 acoustic liquid handler (Labcyte).
Frozen Hela cells were thawed and transferred into Hela assay medium (99% complete Hela culture medium, 1% Pen/Strep) with 20 mL medium/vial of cells. The cells were spun down at 250 g in a table top centrifuge for 5 min and suspended in same volume of Hela assay medium. The cells were then counted and adjusted to a density of 2×10^5 cells/ml in Hela assay medium. Sterile L-tryptophan were added to the cells with final concentration of 300 uM L-tryptophan. A small aliquot (2 mL/plate) of Hela cells were set aside and were not treated with IFNγ, to serve as the Max-E control. The rest of Hela cells were added with sterile IFNγ (Cat #285-IF, R & D systems) with a final concentration of 100 ng/mL.
Hela cells with and without IFNγ were dispensed to the respective wells of 384-well assay plates containing the compounds. The plates were incubated for about 48 hours at a 37° C., 5% CO2 incubator. Afterwards, 12 μL of 0.5 M methyl isonipecotate in dimethyl sulfoxide were added into each well and the plates were sealed and incubated at 37° C. without CO2 overnight. The plates were centrifuged for 1 min at 200×g. The resulting fluorescence was measured in a Spectramax plate reader (Molecular Devices) with a 400 nm excitation filter and a 510 nm emission filter.
The fluorescence intensity of each well was corrected for the background observed in wells with non-IFNγ-treated cells and was expressed as a fraction of the intensity observed in wells of IFNγ-treated cells and DMSO only. Potencies were calculated by linear least squares fit to the four parameter logistic IC50 equation.
Target sequence in this assay (P14902 whole entry): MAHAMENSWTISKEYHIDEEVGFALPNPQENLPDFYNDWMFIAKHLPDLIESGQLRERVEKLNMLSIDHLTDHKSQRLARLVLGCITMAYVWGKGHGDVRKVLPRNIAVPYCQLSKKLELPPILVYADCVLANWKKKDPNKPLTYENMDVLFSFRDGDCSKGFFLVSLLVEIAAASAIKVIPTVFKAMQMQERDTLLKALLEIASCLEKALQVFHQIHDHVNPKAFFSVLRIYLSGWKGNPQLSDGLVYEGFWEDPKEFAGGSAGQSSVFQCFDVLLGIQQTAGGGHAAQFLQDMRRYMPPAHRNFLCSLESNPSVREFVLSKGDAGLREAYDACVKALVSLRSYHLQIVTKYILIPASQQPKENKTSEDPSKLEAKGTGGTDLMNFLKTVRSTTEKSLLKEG

IDO1 [2] = molecular target: T1, IDO1; test: IDO1 Enzyme Assay; type: biochemical; conditions: HIS-tagged recombinant IDO1, fluorescence readout
Protocol: Compounds to be tested were serially diluted in ten 3-fold steps in DMSO starting from 10 mM DMSO stocks. Compound dilutions or DMSO alone were then dispensed from the dilution plate into a Greiner black 384-well assay plate (catalog #781086) using an Echo 555 acoustic liquid handler (Labcyte).
HIS-tagged IDO1 protein was recombinantly expressed in Escherichia coli using ZYP5052 autoinduction media supplemented with 500 μM delta aminolevulinic acid for 48 h at 16° C. IDO1 protein was purified using Ni^2+-affinity resin and size exclusion chromatography. Purified protein was then diluted in assay buffer (50 mM Tris pH 7.0, 1% glycerol, 20 μM methylene blue, 0.05% Tween-20, 20 mM sodium ascorbate, 100 units/mL catalase to obtain a final IDO1 concentration of 40 nM. IDO1 solution […] or buffer alone ([…]) were dispensed to wells of the assay plate using a BioRAPTR liquid dispenser (Beckman Coulter). Assay plates containing compound and IDO1 enzyme were incubated at RT for 30 min. Afterwards, 10 μL of 400 μM tryptophan in assay buffer were added to each well of the assay plate using a BioRAPTR liquid dispenser. Plates were incubated at RT for 60 min and reactions were quenched by addition of 10 μL of 0.5 M methyl isonipecotate in dimethyl sulfoxide. Plates were sealed and incubated at 37° C. for 4 h or 50° C. for 2 h. The plates are allowed to cool and then centrifuged for 1 min at 1000×g. The resulting fluoresence was measured in an Envision plate reader (Perkin Elmer) with a 400/25 nm excitation filter and an 510/20 nm emission filter.
Potencies were calculated by linear least squares fit to the four parameter logistic IC50 equation.
Target sequence in this assay (P14902 whole entry, species assumed): as the sequence (P14902 whole entry) above

IDO1 [3] = molecular target: T1, IDO1; test: IDO1 Human Whole Blood Assay; type: cell-based; conditions: LPS and IFNγ, 18 h, kynurenine by LC/MS/MS
Protocol: Compounds to be tested were serially diluted in ten 3-fold steps in DMSO starting from 10 mM. 3 μL of compound dilutions or DMSO alone were then dispensed from the dilution plate into a polypropylene 96-well assay plate containing 97 μL of RPMI using an Echo 555 acoustic liquid handler (Labcyte). LPS and IFNγ was prepared in RPMI to a 10λ of final conc. (1000 ng/mL), final concentration is 100 ng/mL.
Human whole blood was drawn in sodium heparin coated tubes from healthy internal donors. Two hundred forty μL of blood was transferred to each of the wells of a v-bottom 96 well plate. Thirty μL of compound was transferred from intermediate dilution plate, and incubated for 15 min. […] from stimulants was then transferred to blood and mixed thoroughly. Plate was covered with breathable membrane and incubated at 37° C. for overnight (18 h).
On day 2 isotope labeled standard of kynurenine and tryptophan was made in water at 10× concentration and 30 μL was added to the blood at 3 μM final concentration. The assay plates were centrifuged at 300×G for 10 min with no brake to separate plasma from red blood cells. Sixty μL of plasma samples was removed without disturbing red blood cells.
Plasma was diluted with RPMI in 1:1 ratio and proteins were precipitated out with two volume of Acetonitrile. The plates was centrifuged at 4000×G for 60 min. Twenty μL of supernatant was carefully transferred to a 384 well plate contain 40 μL of 0.1% formic acid in water and analyzed by LC/MS/MS.
LC/MS/MS analyses were performed using Thermo Fisher's LX4-TSQ Quantum Ultra system. This system consists of four Agilent binary high-performance liquid chromatography (HPLC) pumps and a TSQ Quantum Ultra triple quadruple MS/MS instrument. For each sample, 5 μL were injected onto an Atlantis T3 column (2.1 mm×150 mm, 3 μm particle size) from Waters. The mobile phase gradient pumped at 0.8 mL/min was used to elute the analytes from the column at 25° C. The elution started at 0% B increasing linearly to 25% B at 6.5 min, holding at 25% for 1 min, re-equilibrating to 10 min. Mobile phase A consisted of 0.1% formic acid in water. Mobile phase B consisted of 0.1% of formic acid in acetonitrile. Data was acquired in positive mode using a HESI interface. The operational parameters for the TSQ Quantum Ultra instrument were a spray voltage of 4000 V, capillary temperature of 380° C., vaporizer temperature 400° C., shealth gas 60 arbitrary units, Aux gas 20 arbitrary units, tube lens 85 and collision gas 1.2 mTorr. SRM chromatograms of kynurenine (QI: 209.2>Q3:94.0) and internal standard (Q1: 215.3>Q3:98.2) were collected for 90 sec. The peak area was integrated by Xcalibur Quan software. The ratios between the kynurenine generated in the reaction and 2D6-Kynurenine spiked-in internal standard were used to generate percentage inhibition and IC50 values. Compounds were titrated and IC50's were calculated by 4 parameter sigmoidal curve fitting formula.
Target sequence in this assay (P14902 whole entry): as above

Row | IC50 (IDO1 [1]) [nM] | IC50 (IDO1 [2]) [nM] | IC50 (IDO1 [3]) [nM] | Compound
1 | 168 | 102 | 412 | N=S1(=O)CC(CNc2nonc2/C(=N/O)N[C@H]2Cc3ccc(F)cc32)C1 (single isomer, unassigned) [Example 5]
2 | 55.8 | 86 | 427 | C[S@](=N)(=O)CCNc1nonc1/C(=N/O)N[C@H]1Cc2ccc(F)cc21 [Example 1, N—((S)-4-fluorobicyclo[4.2.0]octa-1(6),2,4-trien-7-yl)-N′-hydroxy-4-((2-((S)—S-methylsulfonimidoyl)ethyl)amino)-1,2,5-oxadiazole-3-carboximidamide]
3 | 73 | 98 | 1200 | CS(=N)(=O)N1CCO[C@@H](CNc2nonc2/C(=N\O)N[C@@H]2Cc3ccc(F)cc32)C1 (single isomer, unassigned) [Example 63]
4 | 148 | 85.7 | 1640 | CS(=N)(=O)N1CC(O)(CNc2nonc2/C(=N/O)N[C@H]2Cc3ccc(F)cc32)C1 (single isomer, unassigned) [Example 36]
5 | 117 | 94 | 224 | CS(=N)(=O)N1CC(Oc2nonc2/C(=N/O)N[C@H]2Cc3ccc(F)cc32)C1 (single isomer, unassigned) [Example 41]
6 | 60.9 | 88.1 | 386 | C[S@@](=N)(=O)CCNc1nonc1/C(=N/O)N[C@H]1Cc2ccc(F)cc21 [Example 2, N—((S)-4-fluorobicyclo[4.2.0]octa-1(6),2,4-trien-7-yl)-N′-hydroxy-4-((2-((R)—S-methylsulfonimidoyl)ethyl)amino)-1,2,5-oxadiazole-3-carboximidamide]
7 | 69.2 | 55.1 | 843 | CS(=O)(CCNc1nonc1/C(=N/O)N[C@H]1Cc2ccc(F)cc21)=NC(N)=O (stereo partly drawn) [Example 16, 4-((2-(N-carbamoyl-S-methylsulfonimidoyl)ethyl)amino)-N-((S)-4-fluorobicyclo[4.2.0]octa-1,3,5-trien-7-yl)-N′-hydroxy-1,2,5-oxadiazole-3-carboximidamide]
8 | 162 | 90.6 | 1890 | N=S1(=O)CC(Nc2nonc2/C(=N/O)N[C@H]2Cc3ccc(F)cc32)C1 (single isomer, unassigned) [Example 4]
9 | 20.1 | 165 | 869 | CS(=O)(/C=C/Nc1nonc1/C(=N/O)N[C@H]1Cc2ccc(F)cc21)=NC#N (stereo partly drawn) [Example 15, 4-(((E)-2-(N-cyano-S-methylsulfonimidoyl)vinyl)amino)-N-((S)-4-fluorobicyclo[4.2.0]octa-1(6),2,4-trien-7-yl)-N′-hydroxy-1,2,5-oxadiazole-3-carboximidamide]
10 | 53.7 | 64.7 | 173 | CS(=O)(CCNc1nonc1/C(=N/O)N[C@H]1Cc2ccc(F)cc21)=NC#N (stereo partly drawn) [Example 17, 4-((2-(N-cyano-S-methylsulfonimidoyl)ethyl)amino)-N-((S)-4-fluorobicyclo[4.2.0]octa-1(6),2,4-trien-7-yl)-N′-hydroxy-1,2,5-oxadiazole-3-carboximidamide]
11 | 110 | 120 | 1800 | N=S1(=O)CC(Nc2nonc2/C(=N/O)N[C@H]2Cc3ccc(F)cc32)C1 (single isomer, unassigned) [Example 3]
12 | 92.1 | 51 | 494 | N=S1(=O)CC(CNc2nonc2/C(=N/O)N[C@H]2Cc3ccc(F)cc32)C1 (single isomer, unassigned) [Example 6]
